{
  "source": "paper PMC9289467",
  "about": "“A Novel Multifunctional 5,6-Dimethoxy-Indanone-Chalcone-Carbamate Hybrids Alleviates Cognitive Decline in Alzheimer’s Disease by Dual Inhibition of Acetylcholinesterase and Inflammation” (Frontiers in Aging Neuroscience, 2022)",
  "key": {"APPfl, CTFβ, BACE, PS1": {"system": "APPfl, CTFβ, BACE, PS1", "test": "Western blot of APP processing, APP/PS1 mice", "type": "in vivo", "conditions": "cortex and hippocampus, AP5-treated vs APP/PS1 mice", "method": "(§1) APP/PS1 mice of ages 6 months were randomly divided into vehicle (APP/PS1, n = 10) and treatment groups (AP5, n = 10), which were intragastrically administered with AP5 (40 mg/kg) once daily for consecutive 5 months. AP5 was dissolved in distilled water containing 1% sodium carboxymethyl cellulose.\nFrozen hippocampus and cortex were homogenized in pre-cooling RIPA buffer (P0013B, Beyotime) supplemented with 1 mM phenylmethanesulfonyl fluoride (PMSF) and cocktail of protease and phosphatase inhibitors. […] The membranes were incubated with 5% fat-free milk blocking solution for 1 h at room temperature and then probed with primary antibodies overnight at 4°C. […] Densitometric analysis was performed using Quantity One software (Bio-Rad, Berkeley, CA, United States). […]\n(1:100, BAF2655, R&D, Minneapolis, MN, USA). […] For the quantification of Aβ plaque-associated microglia and astrocyte, Iba1- and GFAP-immunopositive cells around plaques were counted. On each slide, ten plaques were randomly determined and the microglia (nuclei) in the immediate vicinity (two times the plaque diameter) of each plaque were counted. For colocalization of PSD95 and synaptophysin, images were analyzed with the puncta analyzer plugin with a minimum pixel specification of 4 in Image Jand thresholding was consistent for every image. […]"}, "ThS-positive plaque": {"system": "ThS-positive plaque", "test": "Thioflavin S staining of amyloid plaques, APP/PS1 mice", "type": "in vivo", "conditions": "cortex and hippocampus; AP5 40 mg/kg once daily 5 months", "method": "as §1\nThe hemisphere slices were stained with 0.5% fluorescent amyloid dye Thioflavin S (ThS, T1892, Sigma Aldrich) in the dark for 10 min followed by three washes with 50% ethyl alcohol and a final wash in PBS. Image analysis of the number and size of cortical and hippocampal ThS positive plaques was carried out on Image J FIJI software with “analyze particles” function."}},
  "data": [
    {"smiles": "CCN(C)C(=O)Oc1cccc(/C=C2\\Cc3cc(OC)c(OC)cc3C2=O)c1", "note": "[AP5, (E)-3-((5,6-dimethoxy-1-oxo-1,3-dihydro-2H-inden-2-ylidene)-methyl)phenylethyl(methyl)carbamate]", "values": [
      {"measurement": "expression levels of APPfl, CTFβ, BACE and presenilin 1", "setting": "APPfl, CTFβ, BACE, PS1", "result": "no significant changes"},
      {"measurement": "load of ThS-positive plaque", "setting": "ThS-positive plaque", "result": "pronounced reduction"},
      {"measurement": "number of ThS-positive plaque", "setting": "ThS-positive plaque", "result": "pronounced reduction"}
    ]}
  ]
}
